From ChEMBL document CHEMBL1201862, “PubChem BioAssay data set” (2004) come the findings set out here.

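Cells were grown in 96-well plates and exposed to each compound for 48 hours at five concentrations; endpoints were interpolated linearly between bracketing concentrations, or set to the highest concentration if not reached. Abbreviation: GI50, concentration required for 50% inhibition of growth.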 Active and inactive are the calls of the source. No stated cut-off is given here; in the data, active = GI50 up to about 1.1 µM and inactive = higher.

Some test systems named below: BT-549; NCI-H522; SF-268; MCF7; RPMI-8226; ACHN; HL-60; CAKI-1; SK-MEL-2; A549; SK-OV-3; TK-10; OVCAR-5; U-251; RXF 393; NCI-H460; SK-MEL-5; MDA-MB-435; UACC-257; DLD-1.
Holding throughout (assay): DTP human tumour cell line panel, 48 h

In the case of `COc1cc(C(c2cc3c(cc2O)OCO3)N2CCCCC2)cc(OC)c1OC` (stereo not given), the GI50 (commonly the concentration that inhibits growth by half) is 12 µM (inactive) with BT-549; 11.8 µM (inactive) in the test with NCI-H522; 15.8 µM (inactive) with SF-268; 13.6 µM (inactive) in the test with MCF7; 2.96 µM (inactive) in the test on RPMI-8226; 17.1 µM (inactive) with ACHN. Moreover, the GI50 is 1.76 µM (inactive) in the test with HL-60; 12.1 µM (inactive) in the test on CAKI-1; 15.7 µM (inactive) with SK-MEL-2; 20.9 µM (inactive) in the test on A549; 22.2 µM (inactive) with SK-OV-3; 17 µM (inactive) in the test on TK-10. Moreover, the GI50 was 17.8 µM (inactive) with OVCAR-5; 15.8 µM (inactive) with U-251; 13.2 µM (inactive) with RXF 393; 21.8 µM (inactive) in the test on NCI-H460; 19.1 µM (inactive) in the test with SK-MEL-5; 5.02 µM (inactive) in the test with MDA-MB-435. Also, in the test with UACC-257, the GI50 is 12.5 µM (inactive).

In the case of `COc1ccc(C(O)/C(=C/n2ccnc2)c2ccccc2)cc1OC` (stereo not given), the GI50 with DLD-1, in the test on SF-268, in the test with RPMI-8226, with ACHN, in the test with HL-60 and in the test on SK-MEL-2 was > 100 µM (inactive) throughout. In addition, the GI50 in the test with A549, in the test with SK-OV-3, with TK-10, in the test with OVCAR-5, in the test with U-251 and with RXF 393 was > 100 µM (inactive) in each case. Also, the GI50 in the test with NCI-H460, in the test with SK-MEL-5 and with UACC-257 was > 100 µM (inactive) each time.

Regarding `COc1ccc(COCCOCc2nc(C#N)c(N)o2)cc1`, the GI50 in the test with BT-549 is > 100 µM (inactive); in the test on NCI-H522, 6.79 µM (inactive); in the test with SF-268, > 100 µM (inactive); in the test on MCF7, > 100 µM (inactive); with RPMI-8226, > 100 µM (inactive); with ACHN it was > 100 µM (inactive). Also, the GI50 with HL-60 was > 100 µM (inactive); in the test with CAKI-1, 89.9 µM (inactive); in the test with SK-MEL-2 it was > 100 µM (inactive); in the test on A549, > 100 µM (inactive); in the test on SK-OV-3, > 100 µM (inactive); with TK-10, > 100 µM (inactive). The GI50 in the test on OVCAR-5, with U-251, with RXF 393, with NCI-H460, with SK-MEL-5 and in the test with MDA-MB-435 was > 100 µM (inactive) each time. In addition, in the test on UACC-257, the GI50 was > 100 µM (inactive).

As for `CCOc1ccc(-n2c(=O)c3nn4c(=O)n(-c5ccc(OCC)cc5)c(=O)c4nn3c2=O)cc1`, the GI50 in the test with BT-549 is 64.6 µM (inactive); in the test with NCI-H522, > 100 µM (inactive); in the test with SF-268 it was > 100 µM (inactive); in the test on MCF7, > 100 µM (inactive); in the test with RPMI-8226 it was > 100 µM (inactive); with ACHN it was > 100 µM (inactive). In addition, the GI50 with HL-60 was > 100 µM (inactive); with CAKI-1, > 100 µM (inactive); with SK-MEL-2 it was 39.4 µM (inactive); in the test with A549, > 100 µM (inactive); in the test on SK-OV-3, > 100 µM (inactive); in the test with TK-10, > 100 µM (inactive). Besides, the GI50 is > 100 µM (inactive) in the test on OVCAR-5; > 100 µM (inactive) in the test on U-251; 44.6 µM (inactive) in the test with RXF 393; > 100 µM (inactive) with NCI-H460; > 100 µM (inactive) in the test with SK-MEL-5; > 100 µM (inactive) in the test with MDA-MB-435. Besides, in the test on UACC-257, the GI50 is > 100 µM (inactive).

Turning to `COc1ccc(Cc2n[nH]c(Nc3ccc(Br)cc3)nc2=O)cc1OC`, the GI50 in the test with BT-549 was 27 µM (inactive); with NCI-H522, 57.7 µM (inactive); with SF-268, 88.5 µM (inactive); with MCF7, 44.6 µM (inactive); with RPMI-8226, > 100 µM (inactive); with ACHN, > 100 µM (inactive). For the same compound, the GI50 in the test with HL-60 was 57 µM (inactive); in the test on CAKI-1 it was > 100 µM (inactive); in the test with SK-MEL-2 it was 60.1 µM (inactive); in the test with A549 it was > 100 µM (inactive); in the test on SK-OV-3, > 100 µM (inactive); with TK-10, > 100 µM (inactive). Further, the GI50 in the test on OVCAR-5 was > 100 µM (inactive); in the test on U-251, > 100 µM (inactive); in the test with RXF 393, > 100 µM (inactive); in the test on NCI-H460 it was > 100 µM (inactive); in the test with SK-MEL-5 it was > 87.9 µM (inactive); in the test on MDA-MB-435 it was 14.2 µM (inactive). In addition, the GI50 in the test with UACC-257 is > 100 µM (inactive).

As to `[N-]=[N+]=Nc1ccc2c(c1)Sc1ccccc1N2CCCCCl`, the GI50 in the test on BT-549 was 41.6 µM (inactive); in the test on NCI-H522, 40.7 µM (inactive); with SF-268, 41.9 µM (inactive); in the test on MCF7, 14.9 µM (inactive); in the test with RPMI-8226, 23.3 µM (inactive); with ACHN, > 100 µM (inactive). The GI50 in the test with HL-60 was 15.3 µM (inactive); with CAKI-1 it was > 100 µM (inactive); in the test on SK-MEL-2, 13.5 µM (inactive); in the test with A549, 35.2 µM (inactive); in the test on SK-OV-3, > 100 µM (inactive); with TK-10, > 100 µM (inactive). Besides, the GI50 with OVCAR-5 was > 100 µM (inactive); in the test with U-251, 23.7 µM (inactive); with RXF 393 it was 78.9 µM (inactive); in the test with NCI-H460 it was 83.2 µM (inactive); with SK-MEL-5 it was 14.9 µM (inactive); with MDA-MB-435, 51.4 µM (inactive). The GI50 in the test on UACC-257 is 71.9 µM (inactive).

For the compound `O=C(CC(c1ccccc1)N1CCCCC1)c1ccccc1` (stereo not given), the GI50 in the test on BT-549 is 18.2 µM (inactive); with NCI-H522, 12.9 µM (inactive); in the test with SF-268, 16 µM (inactive); in the test on MCF7 it was 2.47 µM (inactive); in the test on RPMI-8226 it was 2.49 µM (inactive); with ACHN it was 17 µM (inactive). Besides, the GI50 in the test on HL-60 was 12.5 µM (inactive); in the test with CAKI-1, 15.7 µM (inactive); in the test with SK-MEL-2, 19.8 µM (inactive); in the test on A549, 20.5 µM (inactive); in the test on SK-OV-3, 17.6 µM (inactive); in the test on TK-10, 14.2 µM (inactive). Besides, the GI50 in the test with OVCAR-5 was 17.5 µM (inactive); in the test with U-251, 9.51 µM (inactive); in the test with RXF 393, 18 µM (inactive); with NCI-H460 it was 13 µM (inactive); in the test on SK-MEL-5, 15.6 µM (inactive); in the test with MDA-MB-435, 12.2 µM (inactive). Further, the GI50 in the test with UACC-257 was 14.4 µM (inactive).

As for `COc1ccc(/N=N/C(=NNC(=O)c2ccc(C)cc2)c2ccc(N(C)C)cc2)cc1`, the GI50 in the test with BT-549 is 27.7 µM (inactive); with NCI-H522 it was 28.9 µM (inactive); with SF-268 it was > 85.7 µM (inactive); with MCF7, 17.1 µM (inactive); with RPMI-8226, 17.5 µM (inactive); in the test on ACHN it was 35.1 µM (inactive). The GI50 is 2.32 µM (inactive) in the test on HL-60; > 91.8 µM (inactive) in the test with CAKI-1; 50.8 µM (inactive) with SK-MEL-2; 48.3 µM (inactive) in the test on A549; 31.8 µM (inactive) with SK-OV-3; > 100 µM (inactive) in the test on TK-10. Also, the GI50 in the test on OVCAR-5 is > 85.9 µM (inactive); in the test on U-251, 63.7 µM (inactive); in the test on RXF 393, 32 µM (inactive); in the test on NCI-H460, 39.7 µM (inactive); with SK-MEL-5 it was 27.2 µM (inactive); in the test on MDA-MB-435, 20.1 µM (inactive). Moreover, in the test with UACC-257, the GI50 is 33.3 µM (inactive).

On to `CC(C)c1cc(Cl)nc(Cl)n1`, for which the GI50 in the test on BT-549, in the test with NCI-H522, with SF-268, in the test with MCF7, with RPMI-8226 and in the test on ACHN was > 100 µM (inactive) each time. For the same compound, the GI50 in the test on HL-60, with CAKI-1, in the test on SK-MEL-2, in the test on A549, with SK-OV-3 and in the test with TK-10 was > 100 µM (inactive) in each case. In addition, the GI50 in the test with OVCAR-5, in the test on U-251, in the test on RXF 393, in the test with NCI-H460, with SK-MEL-5 and in the test on MDA-MB-435 was > 100 µM (inactive) in each case. For the same compound, the GI50 in the test with UACC-257 is > 100 µM (inactive).

Take `CN(C)c1ccc(/C=c2/c3ccccc3n3c2cc(/C=C/c2ccccc2)[n+]3C)cc1`: the GI50 in the test with BT-549 is 0.08 µM (active); in the test on NCI-H522, 0.108 µM (active); with SF-268 it was 0.114 µM (active); in the test on MCF7 it was 0.147 µM (active); in the test on RPMI-8226, 0.0208 µM (active); in the test with ACHN it was 0.255 µM (active). Also, the GI50 in the test with HL-60 is 0.0927 µM (active); with CAKI-1, 1.28 µM (inactive); in the test with SK-MEL-2, 0.282 µM (active); in the test with A549, 0.0512 µM (active); in the test on SK-OV-3, 0.296 µM (active); with TK-10, 0.393 µM (active). Further, the GI50 in the test on OVCAR-5 was 0.502 µM (active); in the test with U-251, 0.0399 µM (active); with RXF 393 it was 0.0538 µM (active); in the test with NCI-H460 it was 0.185 µM (active); in the test with SK-MEL-5, 0.144 µM (active); in the test with MDA-MB-435, 0.135 µM (active). In addition, in the test with UACC-257, the GI50 was 0.339 µM (active).

On to `COC(=O)[C@@]12C3=NO[C@]1(C(=O)OC)C(O[Si](C)(C)C(C)(C)C)C1OC(C)(C)OC1[C@@H]2[C@@H](OCc1ccccc1)CC3` (stereo not given in full), for which the GI50 is > 100 µM (inactive) with DLD-1; 6.1 µM (inactive) in the test on RPMI-8226; 3.11 µM (inactive) in the test on HL-60; > 100 µM (inactive) in the test on SK-MEL-2; > 100 µM (inactive) in the test on A549; > 100 µM (inactive) in the test with SK-OV-3. Further, the GI50 was > 100 µM (inactive) in the test on TK-10, > 100 µM (inactive) in the test on U-251 and 85.5 µM (inactive) in the test with SK-MEL-5.
